Experimental data as given in patent USRE30560E, “Oxazolidinedione derivatives of Vinca alkaloids” (Eli Lilly and Company, priority 1979, dated 1981).

What was measured:
[1] = test system: Gardner lymphosarcoma (GLS); assay: Percent inhibition of transplanted Gardner lymphosarcoma (GLS) in mice; format: in vivo; details: for inhibitory activity orally / oral activity: oral; for inhibitory activity orally: 6-7 mg./kg. (3"-methyl) and 3-6 mg./kg. (3"-(β-chloroethyl)); for oral activity: 2 (VLB) and 2-4.5 (vincristine) mg./kg.
Procedure: (§1) The following table--Table 1--gives the results of several experiments in which mice bearing transplanted tumors were treated successfully with a compound of this invention. In the table, column 1 gives the name of the compound; column 2, the transplanted tumor; column 3, the dose level or dose level range and the number of days the dosage was administered; column 4, the route of administration, and column 5, the percent inhibition of tumor growth or percent prolongation of survival time, e.g., B16 and P388. (ROS is an abbreviation for Ridgeway osteogenic sarcoma; GLS for Gardner lymphosarcoma; P1534(J) and P388 are leukemias; CA755 is an adenocarcinoma; and B16 is a melamoma).

transplanted tumors [2] = details: C-3 amides; cited from earlier work
B16 = assay: Percent prolongation of survival time, mice bearing transplanted B16 melanoma; format: in vivo
Procedure: as §1

[3] = test system: Ridgeway osteogenic sarcoma (ROS); assay: Percent inhibition of transplanted Ridgeway osteogenic sarcoma (ROS) in mice; format: in vivo; details: for inhibitory activity orally / oral activity: oral; for inhibitory activity orally: 6-7 mg./kg. (3"-methyl) and 3-6 mg./kg. (3"-(β-chloroethyl)); for oral activity: 2 (VLB) and 2-4.5 (vincristine) mg./kg.
Procedure: as §1

CA755 = assay: Percent inhibition of transplanted CA755 adenocarcinoma in mice; format: in vivo; details: for inhibitory activity orally / oral activity: oral; for inhibitory activity orally: 6-7 mg./kg. (3"-methyl) and 3-6 mg./kg. (3"-(β-chloroethyl)); for oral activity: 2 (VLB) and 2-4.5 (vincristine) mg./kg.
Procedure: as §1

P1534(J) = assay: Percent inhibition, mice bearing transplanted P1534(J) leukemia; format: in vivo
Procedure: as §1

[4] = Toxicity on oral administration in tumor-bearing animals; format: in vivo, experimental animals; details: above 2 (VLB) and 2-4.5 (vincristine) mg./kg.
transplanted tumors [5] = assay: Activity against transplanted tumors in mice (general statements); format: in vivo; details: for activity by the oral route: same tumors in experimental animals; for dose level showing comparable tumor inhibition or prolongation of life: parenteral, intraperitoneal route
Procedure: as §1

leukemias = details: humans; cited from earlier work
[6] = humans; compared with vincristine; cited from earlier work

CC[C@]1(O)C[C@@H]2CN(CCc3c([nH]c4ccccc34)[C@@](C(=O)OC)(c3cc4c(cc3OC)N(C)[C@H]3[C@]5(OC(=O)N(C)C5=O)[C@H](OC(=O)NC)[C@]5(CC)C=CCN6CC[C@]43[C@@H]65)C2)C1 [4-desacetyl VLB 3"-methyl-3-spiro-5"-oxazolidine-2",4"-dione-4-(N-methyl)carbamate]
Percent Inhibition ([1]; 0.1-2.5 mg./kg. × 7-9 days, IP): 40-100%

CC[C@]1(O)C[C@@H]2CN(CCc3c([nH]c4ccccc34)[C@@](C(=O)OC)(c3cc4c(cc3OC)N(C)[C@H]3[C@]5(OC(=O)N(C)C5=O)[C@H](O)[C@]5(CC)C=CCN6CC[C@]43[C@@H]65)C2)C1 [4-desacetyl VLB 3"-methyl-3-spiro-5"-oxazolidone-2",4"-dione]
Percent Inhibition ([1]; 2.5 mg./kg. × 7 days, IP): 27%

CC[C@]1(O)C[C@@H]2CN(CCc3c([nH]c4ccccc34)[C@@](C(=O)OC)(c3cc4c(cc3OC)N(C)[C@H]3[C@@](O)(C(=O)NCCS)[C@H](O)[C@]5(CC)C=CCN6CC[C@]43[C@@H]65)C2)C1 [C-3 N-(β-mercaptoethyl)carboxamide of 4-desacetyl VLB]
anti-tumor activity in mice (transplanted tumors [2]): highly effective anti-tumor agent in mice

CC[C@]1(O)C[C@@H]2CN(CCc3c([nH]c4ccccc34)[C@@](C(=O)OC)(c3cc4c(cc3OC)N(C)[C@H]3[C@]5(OC(=O)N(CCCl)C5=O)[C@H](OC(C)=O)[C@]5(CC)C=CCN6CC[C@]43[C@@H]65)C2)C1 [VLB 3"-(β-chloroethyl)-3-spiro-5"-oxazolidine-2",4"-dione]
Percent Prolongation of Survival Time (B16; 0.4-0.6 mg./kg. × 10 days, IP): 25-178% | indefinite survivors (survived for 60 days till end of trial) (B16; 0.4-0.6 mg./kg. × 10 days, IP): 5 | inhibitory activity orally [3]: 100% | Percent Inhibition (CA755; 0.75-1.0 mg./kg. × 10 days, IP): 53% | Percent Inhibition (CA755; 3-5 mg./kg. × 9-10 days, PO): 59-92% | inhibitory activity orally (CA755): 100% | Percent Inhibition or Prolongation of Survival Time (P1534(J); 3.5 mg./kg. × 8 days, PO): 100% | Percent Inhibition or Prolongation of Survival Time (P1534(J); 0.4-0.6 mg./kg. × 10 days, IP): 61-86% | Percent Inhibition ([1]; 0.65 mg./kg. × 10 days, IP): 47% | Percent Inhibition ([1]; 0.5-0.6 mg./kg. × 9-10 days, IP): 50-74% | Percent Inhibition ([1]; 3-4 mg./kg. × 9 days, PO): 92-100% | inhibitory activity orally [1]: 100%

C=CCN1C(=O)O[C@]2(C1=O)[C@H](OC(C)=O)[C@]1(CC)C=CCN3CC[C@@]4(c5cc([C@@]6(C(=O)OC)C[C@H]7CN(CCc8c6[nH]c6ccccc86)C[C@](O)(CC)C7)c(OC)cc5N(C)[C@@H]24)[C@@H]31 [VLB 3"-allyl-3-spiro-5"-oxazolidine-2",4"-dione]
Percent Inhibition ([1]; 2.5 mg./kg. × 7 days, IP): 35%

CC[C@]1(O)C[C@@H]2CN(CCc3c([nH]c4ccccc34)[C@@](C(=O)OC)(c3cc4c(cc3OC)N(C)[C@H]3[C@]5(OC(=O)N(C)C5=O)[C@H](OC(C)=O)[C@]5(CC)C=CCN6CC[C@]43[C@@H]65)C2)C1 [VLB 3"-methyl-3-spiro-5"-oxazolidine-2",4"-dione]
Percent Prolongation of Survival Time (B16; 4.5 mg./kg. × 10 days, IP (so in the source)): 49-91% | indefinite survivors (survived for 60 days till end of trial) (B16; 0.5-0.6 mg./kg. × 10 days, IP): 3 | Percent Inhibition ([3]; 5-7 mg./kg. × 10 days, PO): 38-59% | inhibitory activity orally [3]: 100% | Percent Inhibition (CA755; 0.5-1.0 mg./kg. × 10 days, IP): 45-100% | inhibitory activity orally (CA755): 100% | Percent Inhibition or Prolongation of Survival Time (P1534(J); 3-4 mg./kg. × 8 days, PO): 100% | Percent Inhibition or Prolongation of Survival Time (P1534(J); .5-.6 mg./kg. × 10 days, IP): 100% | Percent Inhibition ([1]; 0.6 mg./kg. × 7 days, IP): 100% | Percent Inhibition ([1]; 1.25 mg./kg. × 9 days, IP): 100% | Percent Inhibition ([1]; 3-4 mg./kg. × 10 days, PO): 100% | Percent Inhibition ([1]; 3-5 mg./kg. × 10 days, PO): 37-56% | inhibitory activity orally [1]: 100%

CC[C@]1(O)C[C@@H]2CN(CCc3c([nH]c4ccccc34)[C@@](C(=O)OC)(c3cc4c(cc3OC)N(C)[C@H]3[C@@](O)(C(=O)OC)[C@H](OC(C)=O)[C@]5(CC)C=CCN6CC[C@]43[C@@H]65)C2)C1 [VLB, vincaleukoblastine, reference compound]
toxicity at higher levels [4]: usually are toxic at higher levels | oral activity [3]: only marginally active, if at all | oral activity (CA755): only marginally active, if at all | activity by the oral route (transplanted tumors [5]): do not show this degree of oral activity | dose level showing comparable tumor inhibition or prolongation of life (transplanted tumors [5]): 0.4 to 0.45 mg/kg | oral activity [1]: only marginally active, if at all

CC[C@]1(O)C[C@@H]2CN(CCc3c([nH]c4ccccc34)[C@@](C(=O)OC)(c3cc4c(cc3OC)N(C=O)[C@H]3[C@]5(OC(=O)N(C)C5=O)[C@H](OC(C)=O)[C@]5(CC)C=CCN6CC[C@]43[C@@H]65)C2)C1 [Vincristine 3"-methyl-3-spiro-5"-oxazolidine-2",4"-dione]
Percent Inhibition ([1]; 1.0 mg./kg. × 7 days, IP): 61%

CC[C@]1(O)C[C@H]2CN(CCc3c([nH]c4ccccc34)[C@@](C(=O)OC)(c3cc4c(cc3OC)N(C=O)[C@H]3[C@@](O)(C(=O)OC)[C@H](OC(C)=O)[C@]5(CC)C=CCN6CC[C@]43[C@@H]65)C2)C1 [vincristine, leurocristine]
toxicity at higher levels [4]: usually are toxic at higher levels | activity in the treatment of leukemias (leukemias): most active and useful agent in the treatment of leukemias | oral activity [3]: only marginally active, if at all | oral activity (CA755): only marginally active, if at all | activity by the oral route (transplanted tumors [5]): do not show this degree of oral activity | dose level showing comparable tumor inhibition or prolongation of life (transplanted tumors [5]): 0.2 to 0.25 mg/kg | oral activity [1]: only marginally active, if at all

CC[C@]1(O)C[C@@H]2CN(CCc3c([nH]c4ccccc34)[C@@](C(=O)OC)(c3cc4c(cc3OC)N(C)[C@H]3[C@@](O)(C(N)=O)[C@H](O)[C@]5(CC)C=CCN6CC[C@]43[C@@H]65)C2)C1 [vindesine, 4-desacetyl VLB C-3 carboxamide]
neurotoxicity [6]: less neurotoxicity than does vincristine | activity in the treatment of leukemias (leukemias): active in certain leukemias
